Measured values taken from the NIST ThermoML archive (doi:10.1021/acs.jced.8b00979).

Experiment: xn = mol fraction of the nth substance listed
Conditions: 100 kPa, Liquid; for viscosity: Capillary tube (Ostwald / Ubbelohde) method; for mass density: Vibrating tube method

CCC(C)CO (stereo not given) [2-methyl-1-butanol] + CCCCCO
Conditions | mass density [kg/m3] | viscosity [mPa·s]
288.15 K, x2 = 0 | 823.35 | 6.439
288.15 K, x2 = 0.1 | 822.86 | 6.245
288.15 K, x2 = 0.2 | 822.37 | 6.036
288.15 K, x2 = 0.3 | 821.88 | 5.819
288.15 K, x2 = 0.399 | 821.4 | 5.595
288.15 K, x2 = 0.5 | 820.92 | 5.361
288.15 K, x2 = 0.6 | 820.44 | 5.128
288.15 K, x2 = 0.699 | 819.96 | 4.916
288.15 K, x2 = 0.799 | 819.5 | 4.741
288.15 K, x2 = 0.899 | 819.03 | 4.697
293.15 K, x2 = 0 | 819.64 | 5.3
293.15 K, x2 = 0.1 | 819.15 | 5.146
293.15 K, x2 = 0.2 | 818.66 | 4.998
293.15 K, x2 = 0.3 | 818.19 | 4.837
293.15 K, x2 = 0.399 | 817.71 | 4.677
293.15 K, x2 = 0.5 | 817.24 | 4.516
293.15 K, x2 = 0.6 | 816.77 | 4.362
293.15 K, x2 = 0.699 | 816.3 | 4.196
293.15 K, x2 = 0.799 | 815.84 | 4.062
293.15 K, x2 = 0.899 | 815.38 | 4.046
298.15 K, x2 = 0 | 815.85 | 4.501
298.15 K, x2 = 0.1 | 815.37 | 4.383
298.15 K, x2 = 0.2 | 814.9 | 4.255
298.15 K, x2 = 0.3 | 814.43 | 4.129
298.15 K, x2 = 0.399 | 813.97 | 3.988
298.15 K, x2 = 0.5 | 813.51 | 3.848
298.15 K, x2 = 0.6 | 813.05 | 3.72
298.15 K, x2 = 0.699 | 812.6 | 3.604
298.15 K, x2 = 0.799 | 812.15 | 3.507
298.15 K, x2 = 0.899 | 811.7 | 3.489
303.15 K, x2 = 0 | 812.12 | 3.825
303.15 K, x2 = 0.1 | 811.64 | 3.725
303.15 K, x2 = 0.2 | 811.17 | 3.63
303.15 K, x2 = 0.3 | 810.71 | 3.518
303.15 K, x2 = 0.399 | 810.26 | 3.402
303.15 K, x2 = 0.5 | 809.8 | 3.287
303.15 K, x2 = 0.6 | 809.34 | 3.197
303.15 K, x2 = 0.699 | 808.89 | 3.114
303.15 K, x2 = 0.799 | 808.45 | 3.051
303.15 K, x2 = 0.899 | 808 | 3.018
308.15 K, x2 = 0 | 808.29 | 3.265
308.15 K, x2 = 0.1 | 807.82 | 3.176
308.15 K, x2 = 0.2 | 807.36 | 3.099
308.15 K, x2 = 0.3 | 806.92 | 3.007
308.15 K, x2 = 0.399 | 806.47 | 2.921
308.15 K, x2 = 0.5 | 806.03 | 2.831
308.15 K, x2 = 0.6 | 805.58 | 2.765
308.15 K, x2 = 0.699 | 805.15 | 2.701
308.15 K, x2 = 0.799 | 804.71 | 2.66
308.15 K, x2 = 0.899 | 804.28 | 2.648
313.15 K, x2 = 0 | 804.41 | 2.783
313.15 K, x2 = 0.1 | 803.95 | 2.717
313.15 K, x2 = 0.2 | 803.51 | 2.657
313.15 K, x2 = 0.3 | 803.07 | 2.59
313.15 K, x2 = 0.399 | 802.64 | 2.528
313.15 K, x2 = 0.5 | 802.21 | 2.468
313.15 K, x2 = 0.6 | 801.78 | 2.419
313.15 K, x2 = 0.699 | 801.35 | 2.365
313.15 K, x2 = 0.799 | 800.93 | 2.327
313.15 K, x2 = 0.899 | 800.51 | 2.323
318.15 K, x2 = 0 | 800.47 | 2.379
318.15 K, x2 = 0.1 | 800.02 | 2.329
318.15 K, x2 = 0.2 | 799.6 | 2.281
318.15 K, x2 = 0.3 | 799.18 | 2.232
318.15 K, x2 = 0.399 | 798.76 | 2.187
318.15 K, x2 = 0.5 | 798.34 | 2.141
318.15 K, x2 = 0.6 | 797.93 | 2.103
318.15 K, x2 = 0.699 | 797.52 | 2.07
318.15 K, x2 = 0.799 | 797.11 | 2.041
318.15 K, x2 = 0.899 | 796.7 | 2.028
323.15 K, x2 = 0 | 796.47 | 2.06
323.15 K, x2 = 0.1 | 796.04 | 2.016
323.15 K, x2 = 0.2 | 795.63 | 1.98
323.15 K, x2 = 0.3 | 795.22 | 1.942
323.15 K, x2 = 0.399 | 794.82 | 1.908
323.15 K, x2 = 0.5 | 794.42 | 1.877
323.15 K, x2 = 0.6 | 794.02 | 1.85
323.15 K, x2 = 0.699 | 793.63 | 1.823
323.15 K, x2 = 0.799 | 793.24 | 1.801
323.15 K, x2 = 0.899 | 792.85 | 1.791
328.15 K, x2 = 0 | 792.41 | 1.787
328.15 K, x2 = 0.1 | 792 | 1.753
328.15 K, x2 = 0.2 | 791.6 | 1.725
328.15 K, x2 = 0.3 | 791.22 | 1.697
328.15 K, x2 = 0.399 | 790.84 | 1.669
328.15 K, x2 = 0.5 | 790.46 | 1.645
328.15 K, x2 = 0.6 | 790.08 | 1.624
328.15 K, x2 = 0.699 | 789.7 | 1.609
328.15 K, x2 = 0.799 | 789.33 | 1.598
328.15 K, x2 = 0.899 | 788.96 | 1.594
